# Source: patent US11076594B2, “Pyrazolone compound or salt thereof, preparation method therefor, herbicide composition and use thereof” (QINGDAO KINGAGROOT CHEMICAL COMPOUNDS CO., LTD., priority 2015, dated 2021)
# Legend:
# Format in all cases: in vivo
# Settings in all cases: post-emergence spray at 4-5 leaf stage, 250 g/ha active ingredient with 450 kg/ha water, rated after 3 weeks in greenhouse
# Indian mallow = assay: weed control effect in post-emergence stage (Table 1); set-up: key: Level 10: completely dead; Level 9: above 95% growth control rate; Level 8: above 90% growth control rate; Level 7: above 80% growth control rate; Level 6: above 70% growth control rate; Level 5: above 60% growth control rate; Level 4: above 50% growth control rate; Level 3: above 20% growth control rate; Level 2: 5%-20% growth control rate; Level 1: below 5% growth control rate
# Experimental: (§1) The activity level standard of harmful plant destruction (i.e. growth control rate) is as follows: The above described growth control rate is fresh weight control rate. Monocotyledonous and dicotyledonous weed seeds and main crop seeds (i.e. wheat, corn, rice, soybean, cotton, oilseed, millet and sorghum.) were put into a plastic pot loaded with soil. Then covered with 0.5-2 cm soil, the seeds were allowed to grow in good greenhouse environment. The test plants were treated at 4-5 leaf stage 2-3 weeks after sowing. The test compounds of the invention were dissolved with acetone respectively, then added with 80 tween and diluted by certain amount of water to certain concentration. The solution was sprayed to the plants with a sprayer. Then the plants were cultured for 3 weeks in the greenhouse.
# rorippa indica = assay: as above; set-up: key: Level 10: completely dead; Level 9: above 95% growth control rate; Level 8: above 90% growth control rate; Level 7: above 80% growth control rate; Level 6: above 70% growth control rate; Level 5: above 60% growth control rate; Level 4: above 50% growth control rate; Level 3: above 20% growth control rate; Level 2: 5%-20% growth control rate; Level 1: below 5% growth control rate
# Experimental: as §1
# bidens bipinnata = assay: as above; set-up: key: Level 10: completely dead; Level 9: above 95% growth control rate; Level 8: above 90% growth control rate; Level 7: above 80% growth control rate; Level 6: above 70% growth control rate; Level 5: above 60% growth control rate; Level 4: above 50% growth control rate; Level 3: above 20% growth control rate; Level 2: 5%-20% growth control rate; Level 1: below 5% growth control rate
# Experimental: as §1
# foxtail = assay: as above; set-up: key: Level 10: completely dead; Level 9: above 95% growth control rate; Level 8: above 90% growth control rate; Level 7: above 80% growth control rate; Level 6: above 70% growth control rate; Level 5: above 60% growth control rate; Level 4: above 50% growth control rate; Level 3: above 20% growth control rate; Level 2: 5%-20% growth control rate; Level 1: below 5% growth control rate
# Experimental: as §1
# echinochloa = assay: as above; set-up: key: Level 10: completely dead; Level 9: above 95% growth control rate; Level 8: above 90% growth control rate; Level 7: above 80% growth control rate; Level 6: above 70% growth control rate; Level 5: above 60% growth control rate; Level 4: above 50% growth control rate; Level 3: above 20% growth control rate; Level 2: 5%-20% growth control rate; Level 1: below 5% growth control rate
# Experimental: as §1
# crab grass = assay: as above; set-up: key: Level 10: completely dead; Level 9: above 95% growth control rate; Level 8: above 90% growth control rate; Level 7: above 80% growth control rate; Level 6: above 70% growth control rate; Level 5: above 60% growth control rate; Level 4: above 50% growth control rate; Level 3: above 20% growth control rate; Level 2: 5%-20% growth control rate; Level 1: below 5% growth control rate
# Experimental: as §1
# wheat = assay: post-emergence stage experiment, crop (Table 1)
# Experimental: as §1
# rice = assay: post-emergence stage experiment, crop (Table 1)
# Experimental: as §1
"effect on crop, Wheat (level) (wheat)",Structure (SMILES),"weed control effect, Indian mallow (level) (Indian mallow)","weed control effect, Rorippa indica (level) (rorippa indica)","weed control effect, Bidens bipinnata (level) (bidens bipinnata)","weed control effect, Green foxtail (level) (foxtail)","weed control effect, Echinochloa (level) (echinochloa)","weed control effect, Crab grass (level) (crab grass)","effect on crop, Rice (level) (rice)"
0,COCCCN(C(C)=O)c1c(C(F)(F)F)ccc(C(=O)c2c(C)nn(C)c2O)c1Cl [Compound 008],3 (Level 3: above 20% growth control rate),0,10,10,10,3 (Level 3: above 20% growth control rate),0
0,CCOCCCN(C(C)=O)c1c(C(F)(F)F)ccc(C(=O)c2c(C)nn(C)c2O)c1Cl [Compound 009],2 (Level 2: 5%-20% growth control rate),0,5 (Level 5: above 60% growth control rate),9 (Level 9: above 95% growth control rate),10,1 (Level 1: below 5% growth control rate),5 (Level 5: above 60% growth control rate)
0,CCCCOCCCN(C(C)=O)c1c(C(F)(F)F)ccc(C(=O)c2c(C)nn(C)c2O)c1Cl [Compound 011],0,0,5 (Level 5: above 60% growth control rate),1 (Level 1: below 5% growth control rate),1 (Level 1: below 5% growth control rate),1 (Level 1: below 5% growth control rate),0
0,COCCOCCCN(C(C)=O)c1c(C(F)(F)F)ccc(C(=O)c2c(C)nn(C)c2O)c1Cl [Compound 012],10,0,10,2 (Level 2: 5%-20% growth control rate),9 (Level 9: above 95% growth control rate),1 (Level 1: below 5% growth control rate),0

# More lines, now with the values behind:
Structure (SMILES),"effect on crop, Wheat (level) (wheat)","weed control effect, Indian mallow (level) (Indian mallow)","weed control effect, Rorippa indica (level) (rorippa indica)","weed control effect, Bidens bipinnata (level) (bidens bipinnata)","weed control effect, Green foxtail (level) (foxtail)","weed control effect, Echinochloa (level) (echinochloa)","weed control effect, Crab grass (level) (crab grass)","effect on crop, Rice (level) (rice)"
CC(=O)Nc1c(C(F)(F)F)ccc(C(=O)c2c(C)nn(C)c2O)c1Cl [Compound 002],5 (Level 5: above 60% growth control rate),10,9 (Level 9: above 95% growth control rate),8 (Level 8: above 90% growth control rate),7 (Level 7: above 80% growth control rate),8 (Level 8: above 90% growth control rate),4 (Level 4: above 50% growth control rate),7 (Level 7: above 80% growth control rate)
CC(=O)N(C)c1c(C(F)(F)F)ccc(C(=O)c2c(C)nn(C)c2O)c1Cl [Compound 004],0,9 (Level 9: above 95% growth control rate),9 (Level 9: above 95% growth control rate),9 (Level 9: above 95% growth control rate),1 (Level 1: below 5% growth control rate),4 (Level 4: above 50% growth control rate),4 (Level 4: above 50% growth control rate),5 (Level 5: above 60% growth control rate)
CCCCN(C(C)=O)c1c(C(F)(F)F)ccc(C(=O)c2c(C)nn(C)c2O)c1Cl [Compound 006],0,0,5 (Level 5: above 60% growth control rate),5 (Level 5: above 60% growth control rate),3 (Level 3: above 20% growth control rate),10,2 (Level 2: 5%-20% growth control rate),1 (Level 1: below 5% growth control rate)
CC(=O)N(CCCOC(C)C)c1c(C(F)(F)F)ccc(C(=O)c2c(C)nn(C)c2O)c1Cl [Compound 010],0,0,0,5 (Level 5: above 60% growth control rate),5 (Level 5: above 60% growth control rate),6 (Level 6: above 70% growth control rate),1 (Level 1: below 5% growth control rate),0
Cc1nn(C)c(O)c1C(=O)c1ccc(C(F)(F)F)c(N2CCCC2=O)c1Cl [Compound 018],3 (Level 3: above 20% growth control rate),9 (Level 9: above 95% growth control rate),10,10,10,8 (Level 8: above 90% growth control rate),10,
Cc1nn(C)c(O)c1C(=O)c1ccc(C(F)(F)F)c(-n2ccnc2)c1Cl [Compound 063],0,10,9 (Level 9: above 95% growth control rate),10,1 (Level 1: below 5% growth control rate),1 (Level 1: below 5% growth control rate),0,
Cc1cnn(-c2c(C(F)(F)F)ccc(C(=O)c3c(C)nn(C)c3O)c2Cl)c1 [Compound 084],0,10,9 (Level 9: above 95% growth control rate),10,10,10,8 (Level 8: above 90% growth control rate),7 (Level 7: above 80% growth control rate)
Cc1cc(C)n(-c2c(C(F)(F)F)ccc(C(=O)c3c(C)nn(C)c3O)c2Cl)n1 [Compound 093],0,5 (Level 5: above 60% growth control rate),0,5 (Level 5: above 60% growth control rate),2 (Level 2: 5%-20% growth control rate),5 (Level 5: above 60% growth control rate),2 (Level 2: 5%-20% growth control rate),0
Cc1nn(C)c(O)c1C(=O)c1ccc(C(F)(F)F)c(-n2cc(Cl)cn2)c1Cl [Compound 095],0,0,0,,1 (Level 1: below 5% growth control rate),1 (Level 1: below 5% growth control rate),1 (Level 1: below 5% growth control rate),6 (Level 6: above 70% growth control rate)
